The assay has as its target T1, human PAR-2 (hPAR-2) receptor (Homo sapiens, UniProt P55085).
T1 construct: expressed in HEK-293 cells in an endogenous manner; endogenous in cells; host or cells: HEK-293
T1 sequence (P55085 26-397): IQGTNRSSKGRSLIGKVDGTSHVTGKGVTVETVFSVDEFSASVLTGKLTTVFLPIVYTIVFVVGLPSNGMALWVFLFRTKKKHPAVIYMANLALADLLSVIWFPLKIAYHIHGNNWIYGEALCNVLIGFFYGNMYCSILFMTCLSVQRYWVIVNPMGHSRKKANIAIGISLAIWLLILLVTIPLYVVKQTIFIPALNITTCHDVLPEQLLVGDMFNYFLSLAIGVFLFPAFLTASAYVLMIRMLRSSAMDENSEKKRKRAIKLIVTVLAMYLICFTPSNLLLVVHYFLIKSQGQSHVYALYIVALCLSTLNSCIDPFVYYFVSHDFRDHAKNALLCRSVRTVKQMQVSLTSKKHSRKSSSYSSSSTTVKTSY
Put plainly: In vitro human PAR-2 functional antagonist activity using calcium assays. The note with it: hPAR-2 endogenously expressed in HEK-293 cells; stimulated by 2-Furoyl-LIGRLO-NH2 peptide; Fluo4AM intracellular calcium, FLIPR Tetra. It counts as cell-based. The method, then: Example 283: In Vitro Human PAR-2 Functional Antagonist Activity Using Calcium Assays
Examples of the present invention were tested successively for their agonist and antagonist activities on human PAR-2 (hPAR-2) receptor expressed in HEK-293 cells in an endogenous manner. Compounds exert agonist activity if, by themselves in absence of the 2-Furoyl-LIGRLO-NH2 peptide (selective hPAR-2 agonist), they activate PAR-2; they exert antagonist activity if they decrease the action of the 2-Furoyl-LIGRLO-NH2 peptide on the receptor. The assay used to determine compound activity is based on calcium measurement.
Cell Culture: HEK-293 cells were maintained in Dulbecco's Modified Eagle's Medium supplemented with 10% Foetal Calf Serum, 1% Penicillin/Streptomycin at 37° C./5% CO2. Flasks for tests (F75) are seeded with 6e+06 cells 24 h before the experiment at 37° C./5% CO2.
Calcium assay: Receptor activity was detected by changes in intracellular calcium measured using the fluorescent Ca^2+ sensitive dye, Fluo4AM (Molecular Probes).
The day of the assay, medium was replaced by assay buffer (HBSS 1× (Gibco 14175-053), Hepes 20 mM, MgSO4-7H2O 1 mM, Na2CO3 3.3 mM, CaCl2—2H2O 2.6 mM, 0.5% bovine serum albumin (BSA), Probenecid 2.5 mM, 0.1 mg/mL Pluronic Acid) and complemented with 1 μM Fluo4AM and cells were incubated during 1:30 h at 37° C.
Cells were then detached, resuspended in assay buffer and seeded in 384 wells, transparent-flat bottom black walled plates (2e+04 cells per well). Plates were incubated at +22° C. for 20 min. Compounds stock solutions were prepared in 100% DMSO and dilutions in test buffer were carried out in polypropylene plates with a digital dispenser (D300e, Tecan). Compounds were added to the cells and intracellular Ca^2+ measurements were collected at the same time on FLIPR Tetra® (Molecular Devices) with specific filters (Exc: 470-495 nm/Em: 515-575 nm).
Agonist and antagonist activities of compounds were consecutively evaluated on the same cell plate. Agonist activity was first measured after 10 min incubation with the compound alone. Then, cells were stimulated by an […] of the 2-Furoyl-LIGRLO-NH2 peptide and fluorescence was recorded for an additional 5 min. EC50 of the 2-Furoyl-LIGRLO-NH2 peptide was the concentration giving 80% of the maximal 2-Furoyl-LIGRLO-NH2 response. Agonist activities are evaluated in comparison to basal signals evoked by assay buffer or maximal 2-Furoyl-LIGRLO-NH2 response. […] Antagonist activities are evaluated in comparison to basal signals evoked by assay buffer or EC50 of 2-Furoyl-LIGRLO-NH2 alone.
For orientation: Calcium assays in cells follow changes in intracellular calcium, usually with a dye or a luminescent sensor.

These results are taken from patent publication US20250320224A1 (DOMAIN THERAPEUTICS, priority 2022, published 2025).

Where a name gives a salt, the structure may show the parent alone.

As a reminder, the IC50 is the point on the concentration scale where inhibition reaches its midpoint. As for `Cc1cc(N2CCN(C(=O)c3ccc4c(n3)C(C)(C)CN4c3ccc(F)c(F)c3)C(C)(C)C2)nc(C)c1C(=O)O` [Example 14, 6-(4-(1-(3,4-difluorophenyl)-3,3-dimethyl-2,3-dihydro-1H-pyrrolo[3,2-b]pyridine-5-carbonyl)-3,3-dimethylpiperazin-1-yl)-2,4-dimethylnicotinic acid], the IC50 is below 500 nM.

`CO[C@@H]1CN(C(=O)c2ccc3c(n2)C(C)(C)CN3c2ccc(Cl)c(F)c2)CC[C@H]1CC(=O)O` [Example 92, 2-((3S,4S)-1-(1-(4-chloro-3-fluorophenyl)-3,3-dimethyl-2,3-dihydro-1H-pyrrolo[3,2-b]pyridine-5-carbonyl)-3-methoxypiperidin-4-yl)acetic acid]: the IC50 was 500 to 10000 nM.

Take `CC1(C)CN(c2ccsc2)c2ccc(C(=O)N3CCNC(=O)C3(C)C)nc21` [Example 11, 4-(3,3-dimethyl-1-(thiophen-3-yl)-2,3-dihydro-1H-pyrrolo[3,2-b]pyridine-5-carbonyl)-3,3-dimethylpiperazin-2-one]: the IC50 is 500 to 10000 nM.

Consider `CC1(C)CN(c2ccc(Cl)c(F)c2)c2ccc(C(=O)N3CCN(C(=O)CCCC(=O)O)CC3(C)C)nc21` [Example 28, 5-(4-(1-(4-chloro-3-fluorophenyl)-3,3-dimethyl-2,3-dihydro-1H-pyrrolo[3,2-b]pyridine-5-carbonyl)-3,3-dimethylpiperazin-1-yl)-5-oxopentanoic acid], for which the IC50 is 500 to 10000 nM.

Turning to `CN1CNC(=O)C12CCN(C(=O)c1ccc3c(n1)C(C)(C)CN3c1ccc(Cl)c(F)c1)CC2` [Example 29, 8-(1-(4-chloro-3-fluorophenyl)-3,3-dimethyl-2,3-dihydro-1H-pyrrolo[3,2-b]pyridine-5-carbonyl)-1-methyl-1,3,8-triazaspiro[4.5]decan-4-one], the IC50 was 500 to 10000 nM.

Turning to `CC1(C)CN(c2ccc(Cl)c(F)c2)c2ccc(C(=O)N3CCC4(C3)C(=O)Nc3ccccc34)nc21` (stereo not drawn) [Example 120, 1′-(1-(4-chloro-3-fluorophenyl)-3,3-dimethyl-2,3-dihydro-1H-pyrrolo[3,2-b]pyridine-5-carbonyl)spiro[indoline-3,3′-pyrrolidin]-2-one], the IC50 is above 10000 nM.

For `CC1(C)CN(c2ccc(Cl)c(F)c2)c2ccc(C(=O)N3CCC4(CCNC4=O)CC3)nc21` [Example 75, 8-(1-(4-chloro-3-fluorophenyl)-3,3-dimethyl-2,3-dihydro-1H-pyrrolo[3,2-b]pyridine-5-carbonyl)-2,8-diazaspiro[4.5]decan-1-one], the half-inhibitory concentration (IC50) is 500 to 10000 nM.

Regarding `CCN1CCN(C(=O)c2ccc3c(n2)C(C)(C)CN3c2ccc(Cl)c(F)c2)C(C)(C)C1` [Example 23, (1-(4-chloro-3-fluorophenyl)-3,3-dimethyl-2,3-dihydro-1H-pyrrolo[3,2-b]pyridin-5-yl)(4-ethyl-2,2-dimethylpiperazin-1-yl)methanone hydrochloride], the IC50 was in the range of 500 to 10000 nM.

Regarding `CC1(C)CN(c2ccc(CC(=O)O)cn2)CCN1C(=O)c1cnc2c(n1)C1(CCCC1)CN2c1ccc(F)c(F)c1` [Example 229, 2-(6-(4-(5′-(3,4-difluorophenyl)-5′,6′-dihydrospiro[cyclopentane-1,7′-pyrrolo[2,3-b]pyrazine]-2′-carbonyl)-3,3-dimethylpiperazin-1-yl)pyridin-3-yl)acetic acid], the IC50 is below 500 nM.

As for `CO[C@@H]1CCC2(C1)CN(c1ccc(Cl)c(F)c1)c1ccc(C(=O)N3CCN(c4cc(C)c(C(=O)O)c(C)n4)CC3(C)C)nc12` (stereo partly drawn) [Example 144, 6-(4-((3R)-1′-(4-chloro-3-fluorophenyl)-3-methoxy-1′,2′-dihydrospiro[cyclopentane-1,3′-pyrrolo[3,2-b]pyridine]-5′-carbonyl)-3,3-dimethylpiperazin-1-yl)-2,4-dimethylnicotinic acid], the concentration for half-maximal inhibition (IC50) was below 500 nM.

As for `CC1(C)CN(CCc2ccc(F)cc2)c2ncc(C(=O)N3CCN(c4ccc(CC(=O)O)cn4)CC3(C)C)nc21` [Example 211, 2-(6-(4-(5-(4-fluorophenethyl)-7,7-dimethyl-6,7-dihydro-5H-pyrrolo[2,3-b]pyrazine-2-carbonyl)-3,3-dimethylpiperazin-1-yl)pyridin-3-yl)acetic acid], the half-inhibitory concentration (IC50) lay within 500 to 10000 nM.

As for `CC1(C)CN(c2ccc(Cl)c(F)c2)c2ccc(C(=O)N3CCNC(=O)C3(C)C)nc21` [Example 18, 4-(1-(4-chloro-3-fluorophenyl)-3,3-dimethyl-2,3-dihydro-1H-pyrrolo[3,2-b]pyridine-5-carbonyl)-3,3-dimethylpiperazin-2-one], the IC50 was below 500 nM.

In the case of `CC1CC2(C1)CN(c1ccc(Cl)c(F)c1)c1ccc(C(=O)N3CCN(c4ccc(CC(=O)O)cn4)CC3(C)C)nc12` (stereo not drawn) [Example 154, 2-(6-(4-(1′-(4-chloro-3-fluorophenyl)-3-methyl-1′,2′-dihydrospiro[cyclobutane-1,3′-pyrrolo[3,2-b]pyridine]-5′-carbonyl)-3,3-dimethylpiperazin-1-yl)pyridin-3-yl)acetic acid], the IC50 is below 500 nM.

On to `CC1(C)C(=O)NCCN1C(=O)c1ccc2c(n1)[C@@]1(C)CCO[C@H]1N2c1ccc(Cl)c(F)c1` (single isomer, unassigned) [Example 62], for which the IC50 is below 500 nM.

For the compound `CC1(C)CCN(c2ccc(Cl)c(F)c2)c2ccc(C(=O)N3CCN(c4ccc(CC(=O)O)cn4)CC3(C)C)nc21` [Example 177, 2-(6-(4-(5-(4-chloro-3-fluorophenyl)-8,8-dimethyl-5,6,7,8-tetrahydro-1,5-naphthyridine-2-carbonyl)-3,3-dimethylpiperazin-1-yl)pyridin-3-yl)acetic acid], the half-maximal inhibitory concentration (IC50) was below 500 nM.

Turning to `C[C@H](CC(=O)O)N(C)C(=O)c1ccc2c(n1)C(C)(C)CN2c1ccc(Cl)c(F)c1` [Example 47, (R)-3-(1-(4-chloro-3-fluorophenyl)-N,3,3-trimethyl-2,3-dihydro-1H-pyrrolo[3,2-b]pyridine-5-carboxamido)butanoic acid], the IC50 lay in the range of 500 to 10000 nM.

As for `Cc1cc(N2CCN(C(=O)c3cnc4c(n3)C(C)(C)CN4c3ccc(Cl)c(Cl)c3)C(C)(C)C2)nc(C)c1C(=O)O` [Example 249, 6-(4-(5-(3,4-dichlorophenyl)-7,7-dimethyl-6,7-dihydro-5H-pyrrolo[2,3-b]pyrazine-2-carbonyl)-3,3-dimethylpiperazin-1-yl)-2,4-dimethylnicotinic acid], the IC50 was below 500 nM.

Regarding `CC1(C)CN(c2cc(F)c(Cl)c(F)c2)c2ncc(C(=O)N3CCN(c4ccc(CC(=O)O)cn4)CC3(C)C)nc21` [Example 241, 2-(6-(4-(5-(4-chloro-3,5-difluorophenyl)-7,7-dimethyl-6,7-dihydro-5H-pyrrolo[2,3-b]pyrazine-2-carbonyl)-3,3-dimethylpiperazin-1-yl)pyridin-3-yl)acetic acid], the 50% inhibitory concentration (IC50) is below 500 nM.

With `CC1(C)CN(c2ccc(Cl)c(F)c2)c2cc(O)c(C(=O)N3CCN(c4ccc(CC(=O)O)cn4)CC3(C)C)nc21` [Example 258, 2-(6-(4-(1-(4-chloro-3-fluorophenyl)-6-hydroxy-3,3-dimethyl-2,3-dihydro-1H-pyrrolo[3,2-b]pyridine-5-carbonyl)-3,3-dimethylpiperazin-1-yl)pyridin-3-yl)acetic acid], the IC50 fell in the range of 500 to 10000 nM.

`CN(C(=O)c1ccc2c(n1)C(C)(C)CN2c1ccc(Cl)c(F)c1)C1(C(N)=O)CC1` [Example 48, N-(1-carbamoylcyclopropyl)-1-(4-chloro-3-fluorophenyl)-N,3,3-trimethyl-2,3-dihydro-1H-pyrrolo[3,2-b]pyridine-5-carboxamide]: the 50% inhibitory concentration (IC50) fell in the range of 500 to 10000 nM.

Regarding `CCC1(C)CN(c2ccc(Cl)c(F)c2)c2ccc(C(=O)NC3(C(N)=O)CC3)nc21` (stereo not drawn) [Example 54, N-(1-carbamoylcyclopropyl)-1-(4-chloro-3-fluorophenyl)-3-ethyl-3-methyl-2,3-dihydro-1H-pyrrolo[3,2-b]pyridine-5-carboxamide], the IC50 lay within 500 to 10000 nM.
